Reference: patent US10828317B2, “Method of treating bacterial infections” (priority 2016, dated 2020)
Where two headings read alike, the source gives them in different places.

Tests used:
M. luteus EN0455 = assay: MIC; assay type: cell-based, Micrococcus luteus; conditions: Micrococcus luteus, read-out: MIC
P. mirabilis EN0457 = assay: MIC; assay type: cell-based, Proteus mirabilis; conditions: Proteus mirabilis, read-out: MIC
E. coli B EN0458 = assay: MIC; assay type: cell-based, Escherichia coli B; conditions: Escherichia coli, read-out: MIC
P. aeruginosa EN0459 = assay: MIC; assay type: cell-based, Pseudomonas aeruginosa; conditions: Pseudomonas aeruginosa, read-out: MIC
P. aeruginosa EN0460 = assay: MIC; assay type: cell-based, Pseudomonas aeruginosa; conditions: Pseudomonas aeruginosa, read-out: MIC
E. aerogenes EN0461 = assay: MIC; assay type: cell-based, Enterobacter aerogenes; conditions: Klebsiella aerogenes, read-out: MIC
K. pneumoniae EN0463 = assay: MIC; assay type: cell-based, Klebsiella pneumoniae; conditions: Klebsiella pneumoniae, read-out: MIC
S. epidermidis EN0456 = assay: MIC; assay type: cell-based, Staphylococcus epidermidis; conditions: Staphylococcus epidermidis, read-out: MIC
Citrobacter sp. EN0465 = assay: MIC; assay type: cell-based; conditions: Citrobacter, read-out: MIC
[1] = test system: A. pittii or A. nosocomialis EN0180; assay: MIC; assay type: cell-based, Acinetobacter pittii or nosocomialis; conditions: read-out: MIC
P. aeruginosa EN0422 = assay: MIC; assay type: cell-based, Pseudomonas aeruginosa; conditions: Pseudomonas aeruginosa, read-out: MIC
P. mirabilis ST19 EN0445 = assay: MIC; assay type: cell-based, Proteus mirabilis; conditions: Proteus mirabilis, read-out: MIC
E. coli EN001 = assay: MIC, WT (EN001 = EN0001, ATCC 25922); assay type: cell-based, Escherichia coli

SMILES: O=c1ccn([C@@H]2O[C@H](CO)[C@@H](O)[C@H]2O)c(=O)[nH]1 [Uridine, uridine]
- MIC (M. luteus EN0455; EN0455, Combination 1 AZT+trimethoprim+uridine, Table 16): 200 µg/mL
- MIC (M. luteus EN0455; EN0455, Combination 2 AZT+trimethoprim+uridine+thymidine, Table 16): > 400 µg/mL
- MIC (M. luteus EN0455; EN0455, combination AZT+trimethoprim+uridine, Table 6): 500 µg/mL
- MIC (M. luteus EN0455; EN0455, combination FdUrd+trimethoprim+uridine, Table 8): 200 µg/mL
- MIC (M. luteus EN0455; EN0455, combination didanosine+trimethoprim+uridine, Table 10): 200 µg/mL
- MIC (P. mirabilis EN0457; EN0457, Combination 1 AZT+trimethoprim+uridine, Table 16): 200 µg/mL
- MIC (P. mirabilis EN0457; EN0457, Combination 2 AZT+trimethoprim+uridine+thymidine, Table 16): > 400 µg/mL
- MIC (P. mirabilis EN0457; EN0457, combination AZT+trimethoprim+uridine, Table 6): 500 µg/mL
- MIC (E. coli B EN0458; BEN0458, combination FdUrd+trimethoprim+uridine, Table 8): 3 µg/mL
- MIC (E. coli B EN0458; BEN0458, combination didanosine+trimethoprim+uridine, Table 10): 3 µg/mL
- MIC (P. aeruginosa EN0459; EN0459, Combination 1 AZT+trimethoprim+uridine, Table 16): > 400 µg/mL
- MIC (P. aeruginosa EN0459; EN0459, Combination 2 AZT+trimethoprim+uridine+thymidine, Table 16): > 400 µg/mL
- MIC (P. aeruginosa EN0459; EN0459, combination AZT+trimethoprim+uridine, Table 6): > 1000 µg/mL
- MIC (P. aeruginosa EN0459; EN0459, combination FdUrd+trimethoprim+uridine, Table 8): > 400 µg/mL
- MIC (P. aeruginosa EN0459; EN0459, combination didanosine+trimethoprim+uridine, Table 10): > 400 µg/mL
- MIC (P. aeruginosa EN0460; EN0460, Combination 1 AZT+trimethoprim+uridine, Table 16): > 400 µg/mL
- MIC (P. aeruginosa EN0460; EN0460, Combination 2 AZT+trimethoprim+uridine+thymidine, Table 16): > 400 µg/mL
- MIC (P. aeruginosa EN0460; EN0460, combination AZT+trimethoprim+uridine, Table 6): > 1000 µg/mL
- MIC (P. aeruginosa EN0460; EN0460, combination FdUrd+trimethoprim+uridine, Table 8): > 400 µg/mL
- MIC (P. aeruginosa EN0460; EN0460, combination didanosine+trimethoprim+uridine, Table 10): > 400 µg/mL
- MIC (E. aerogenes EN0461; EN0461, Combination 2 AZT+trimethoprim+uridine+thymidine, Table 16): 200 µg/mL
- MIC (E. aerogenes EN0461; EN0461, combination AZT+trimethoprim+uridine, Table 6): 60 µg/mL
- MIC (K. pneumoniae EN0463; EN0463, Combination 1 AZT+trimethoprim+uridine, Table 16): 12.5 µg/mL
- MIC (K. pneumoniae EN0463; EN0463, combination AZT+trimethoprim+uridine, Table 6): 16 µg/mL
- MIC (S. epidermidis EN0456; EN0456, Combination 1 AZT+trimethoprim+uridine, Table 16): 66.4 µg/mL
- MIC (S. epidermidis EN0456; EN0456, Combination 2 AZT+trimethoprim+uridine+thymidine, Table 16): 200 µg/mL
- MIC (S. epidermidis EN0456; EN0456, combination AZT+trimethoprim+uridine, Table 6): 16 µg/mL
- MIC (S. epidermidis EN0456; EN0456, combination FdUrd+trimethoprim+uridine, Table 8): < 0.8 µg/mL
- MIC (S. epidermidis EN0456; EN0456, combination didanosine+trimethoprim+uridine, Table 10): 6 µg/mL
- MIC (Citrobacter sp. EN0465; SP.EN0465, Combination 1 AZT+trimethoprim+uridine, Table 16): > 400 µg/mL
- MIC (Citrobacter sp. EN0465; SP.EN0465, Combination 2 AZT+trimethoprim+uridine+thymidine, Table 16): > 400 µg/mL
- MIC (Citrobacter sp. EN0465; SP.EN0465, combination AZT+trimethoprim+uridine, Table 6): > 1000 µg/mL
- MIC (Citrobacter sp. EN0465; SP.EN0465, combination FdUrd+trimethoprim+uridine, Table 8): > 400 µg/mL
- MIC (Citrobacter sp. EN0465; SP.EN0465, combination didanosine+trimethoprim+uridine, Table 10): > 400 µg/mL
- MIC ([1]; Combination 1 AZT+trimethoprim+uridine, Table 16): > 400 µg/mL
- MIC ([1]; Combination 2 AZT+trimethoprim+uridine+thymidine, Table 16): > 400 µg/mL
- MIC ([1]; combination AZT+trimethoprim+uridine, Table 6): > 1000 µg/mL
- MIC ([1]; combination FdUrd+trimethoprim+uridine, Table 8): 400 µg/mL
- MIC ([1]; combination didanosine+trimethoprim+uridine, Table 10): > 400 µg/mL
- MIC (P. aeruginosa EN0422; EN0422, Combination 1 AZT+trimethoprim+uridine, Table 16): > 400 µg/mL
- MIC (P. aeruginosa EN0422; EN0422, Combination 2 AZT+trimethoprim+uridine+thymidine, Table 16): > 400 µg/mL
- MIC (P. aeruginosa EN0422; EN0422, combination AZT+trimethoprim+uridine, Table 6): > 1000 µg/mL
- MIC (P. aeruginosa EN0422; EN0422, combination FdUrd+trimethoprim+uridine, Table 8): > 400 µg/mL
- MIC (P. aeruginosa EN0422; EN0422, combination didanosine+trimethoprim+uridine, Table 10): > 400 µg/mL
- MIC (P. mirabilis ST19 EN0445; ST19EN0445, Combination 2 AZT+trimethoprim+uridine+thymidine, Table 16): > 400 µg/mL
- MIC (P. mirabilis ST19 EN0445; ST19EN0445, combination AZT+trimethoprim+uridine, Table 6): > 1000 µg/mL
- MIC (E. coli EN001; Escherichia coli, EN001, Combination 1 AZT+trimethoprim+uridine, Table 16, read-out: MIC): 6.4 µg/mL
- MIC (E. coli EN001; Escherichia coli, EN001, combination AZT+trimethoprim+uridine, Table 6, read-out: MIC): 16 µg/mL
- MIC (E. coli EN001; Escherichia coli, EN001, combination FdUrd+trimethoprim+uridine, Table 8, read-out: MIC): 13 µg/mL
- MIC (E. coli EN001; Escherichia coli, EN001, combination didanosine+trimethoprim+uridine, Table 10, read-out: MIC): 13 µg/mL
- MIC (E. coli EN001; combination AZT+trimethoprim+uridine, Table 17B): 13 µg/mL
